Target: Fyn (Homo sapiens, UniProt P06241)
Experiment: KinaseProfiler Assay

Chain of Fyn (P06241 whole entry): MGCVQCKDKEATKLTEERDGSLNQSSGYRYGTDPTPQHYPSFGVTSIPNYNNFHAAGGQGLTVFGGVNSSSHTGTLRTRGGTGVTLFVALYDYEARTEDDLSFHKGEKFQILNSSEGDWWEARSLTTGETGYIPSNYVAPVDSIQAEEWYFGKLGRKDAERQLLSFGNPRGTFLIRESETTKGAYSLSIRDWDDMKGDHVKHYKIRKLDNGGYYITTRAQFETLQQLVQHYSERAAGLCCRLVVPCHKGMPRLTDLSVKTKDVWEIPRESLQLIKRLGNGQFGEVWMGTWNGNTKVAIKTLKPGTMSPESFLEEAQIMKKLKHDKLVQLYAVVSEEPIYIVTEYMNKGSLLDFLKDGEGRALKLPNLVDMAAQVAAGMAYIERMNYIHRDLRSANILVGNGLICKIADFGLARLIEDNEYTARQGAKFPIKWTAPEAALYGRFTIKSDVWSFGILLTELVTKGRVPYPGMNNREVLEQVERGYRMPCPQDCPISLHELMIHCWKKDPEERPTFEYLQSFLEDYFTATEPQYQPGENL

In the case of `COc1cc(O)c(CC=C(C)C)c(O)c1C(=O)/C=C/c1ccc(O)cc1` [Xanthohumol, xanthohumol], the “Kinase activity, % of Control” value (1 ug/ml) is reported as 104 % of Control, the “Kinase activity, % of Control” value (5 ug/ml) is reported as 66 % of Control and the “Kinase activity, % of Control” value (25 ug/ml) is reported as 42 % of Control. The “Kinase activity, % of Control” value (50 ug/ml) was 18 % of Control.

Reference: patent US20080031982A1 (Metaproteomics, LLC, priority 2006, published 2008)
